Data published in patent publication US12077503B2, “Substituted cyclic amides and their use as herbicides” (FMC CORPORATION, priority 2015, dated 2024).

Columns and labels:
Type in all cases: in vivo
[1] = system: sedge, umbrella (small-flower umbrella sedge, Cyperus difformis); experiment: Test B flooded paddy test; details: Cyperus difformis, 250 g ai/ha, Flood; 0 to 100 scale where 0 is no effect and 100 is complete control; read-out: Sedge, Umbrella plant response rating
Outline: (§1)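 Compound goes directly into floodwater once pots are flooded 3 cm above soil, targeting plants at two leaves; the water depth is then held for the test duration. Plants sit 13–15 d in a greenhouse and are rated visually, 100 denoting complete control.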

[2] = system: ducksalad (Heteranthera limosa); experiment: Test B flooded paddy test; details: Heteranthera limosa, 250 g ai/ha, Flood; 0 to 100 scale where 0 is no effect and 100 is complete control; read-out: Ducksalad plant response rating
Outline: as §1

rice (Oryra sativa) = experiment: Test B flooded paddy test; details: Oryza sativa, 250 g ai/ha, Flood; 0 to 100 scale where 0 is no effect and 100 is complete control; read-out: Rice plant response rating
Outline: as §1

[3] = system: barnyardgrass (Echinochloa crus-galli); experiment: Test B flooded paddy test; details: Echinochloa crus-galli, 250 g ai/ha, Flood; 0 to 100 scale where 0 is no effect and 100 is complete control; read-out: Barnyardgrass plant response rating
Outline: as §1

corn (Zea mays) = experiment: Test A postemergence; details: Zea mays, post-emergence, 240 h; for plant injury at 125 g/ha: 125 g ai/ha, postemergence, visual injury on 0 to 100 scale (0 no effect, 100 complete control), approx. 10 d, read-out: Corn plant response rating; for Corn plant response rating (crop injury, 0 = no effect, 100 = complete kill) at 31 g/ha: Postemergence, 31 g ai/ha, visual injury after approx. 10 d, 0 to 100 scale, 100 complete control
Outline: (§2)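 Preemergence soil spray on seeded pots or post-emergence spray on 1–2 leaf plants, in loam–sand blend. Greenhouse ~10 d. Visual rating 0–100 against untreated plants.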

Kochia (Kochia scoparia) [4] = experiment: Test A postemergence; details: Bassia scoparia, post-emergence, 240 h; for pest or weed control at 125 g/ha: 125 g ai/ha, postemergence, visual injury on 0 to 100 scale (0 no effect, 100 complete control), approx. 10 d, read-out: Kochia plant response rating; for pest or weed control at 31 g/ha: Postemergence, 31 g ai/ha, visual injury after approx. 10 d, 0 to 100 scale, 0 no effect, 100 complete control, read-out: Plant response rating, Kochia
Outline: as §2

[5] = system: ragweed (common ragweed, Ambrosia elatior); experiment: Test A postemergence; details: Ambrosia artemisiifolia, post-emergence, 240 h; for pest or weed control at 125 g/ha: 125 g ai/ha, postemergence, visual injury vs untreated controls after approx. 10 d, 0 = no effect, 100 = complete control, read-out: Ragweed plant response rating (0 to 100 scale); for pest or weed control at 31 g/ha: Postemergence, 31 g ai/ha, visual injury after approx. 10 d, 0 to 100 scale, 0 no effect, 100 complete control, read-out: Plant response rating, Ragweed
Outline: as §2

[6] = system: pigweed (Amaranthus retroflexus); experiment: Test A postemergence; details: Amaranthus retroflexus, post-emergence, 240 h; for pest or weed control at 125 g/ha: 125 g ai/ha, postemergence, visual injury vs untreated controls after approx. 10 d, 0 = no effect, 100 = complete control, read-out: Pigweed plant response rating (0 to 100 scale); for pest or weed control at 31 g/ha: Postemergence, 31 g ai/ha, visual injury after approx. 10 d, 0 to 100 scale, 0 no effect, 100 complete control, read-out: Plant response rating, Pigweed
Outline: as §2

[7] = system: wheat (Triticum aestivum); experiment: Test A postemergence; details: Triticum aestivum, post-emergence, 240 h; for plant injury at 125 g/ha: 125 g ai/ha, postemergence, visual injury vs untreated controls after approx. 10 d, 0 = no effect, 100 = complete control, read-out: Wheat plant response rating (0 to 100 scale); for plant injury at 31 g/ha: Postemergence, 31 g ai/ha, visual injury after approx. 10 d, 0 to 100 scale, 0 no effect, 100 complete control, read-out: Plant response rating, Wheat
Outline: as §2

[8] = system: blackgrass (Alopecurus myosuroides); experiment: Test A postemergence; details: Alopecurus myosuroides, post-emergence, 240 h; for pest or weed control at 125 g/ha: 125 g ai/ha, postemergence, visual injury on 0 to 100 scale (0 no effect, 100 complete control), approx. 10 d, read-out: Blackgrass plant response rating; for pest or weed control at 31 g/ha: Postemergence, 31 g ai/ha, visual injury after approx. 10 d, 0 to 100 scale, 0 no effect, 100 complete control, read-out: Plant response rating, Blackgrass
Outline: as §2

[9] = system: giant foxtail (Setaria faberii); experiment: Test A postemergence; details: Setaria faberi, post-emergence, 240 h; for pest or weed control at 125 g/ha: 125 g ai/ha, postemergence, visual injury on 0 to 100 scale (0 no effect, 100 complete control), approx. 10 d, read-out: Foxtail, Giant plant response rating; for pest or weed control at 31 g/ha: Postemergence, 31 g ai/ha, visual injury after approx. 10 d, 0 to 100 scale, 0 no effect, 100 complete control, read-out: Plant response rating, Foxtail, Giant
Outline: as §2

[10] = system: Galium (catchweed bedstraw, Galium aparine); experiment: Test A postemergence; details: Galium, post-emergence, 240 h; for pest or weed control at 125 g/ha: 125 g ai/ha, postemergence, visual injury on 0 to 100 scale (0 no effect, 100 complete control), approx. 10 d, read-out: Galium plant response rating; for pest or weed control at 31 g/ha: Postemergence, 31 g ai/ha, visual injury after approx. 10 d, 0 to 100 scale, 0 no effect, 100 complete control, read-out: Plant response rating, Galium
Outline: as §2

[11] = system: barnyardgrass (Echinochloa crus-galli); experiment: Test A postemergence; details: Echinochloa crus-galli, post-emergence, 240 h; for pest or weed control at 125 g/ha: 125 g ai/ha, postemergence, visual injury on 0 to 100 scale (0 no effect, 100 complete control), approx. 10 d, read-out: Barnyardgrass plant response rating; for pest or weed control at 31 g/ha: Postemergence, 31 g ai/ha, visual injury after approx. 10 d, 0 to 100 scale, 0 no effect, 100 complete control, read-out: Plant response rating, Barnyardgrass
Outline: as §2

[12] = system: ryegrass, Italian (Italian ryegrass, Lolium multiflorum); experiment: Test A postemergence; details: Lolium multiflorum, post-emergence, 240 h; for pest or weed control at 125 g/ha: 125 g ai/ha, postemergence, visual injury vs untreated controls after approx. 10 d, 0 = no effect, 100 = complete control, read-out: Ryegrass, Italian plant response rating (0 to 100 scale); for pest or weed control at 31 g/ha: Postemergence, 31 g ai/ha, visual injury after approx. 10 d, 0 to 100 scale, 0 no effect, 100 complete control, read-out: Plant response rating, Ryegrass, Italian
Outline: as §2

Kochia (Kochia scoparia) [13] = experiment: Test A preemergence; details: Bassia scoparia, pre-emergence, 240 h, 0 to 100 scale where 0 is no effect and 100 is complete control, read-out: Kochia plant response rating; for pest or weed control at 31 g/ha: 31 g ai/ha, Preemergence; for pest or weed control at 125 g/ha: 125 g ai/ha, preemergence, approx. 10 d
Outline: as §2

[14] = system: ragweed (common ragweed, Ambrosia elatior); experiment: Test A preemergence; details: Ambrosia artemisiifolia, pre-emergence, 240 h, 0 to 100 scale where 0 is no effect and 100 is complete control, read-out: Ragweed plant response rating; for pest or weed control at 31 g/ha: 31 g ai/ha, Preemergence; for pest or weed control at 125 g/ha: 125 g ai/ha, preemergence, approx. 10 d
Outline: as §2

[15] = system: pigweed (Amaranthus retroflexus); experiment: Test A preemergence; details: Amaranthus retroflexus, pre-emergence, 240 h, 0 to 100 scale where 0 is no effect and 100 is complete control, read-out: Pigweed plant response rating; for pest or weed control at 31 g/ha: 31 g ai/ha, Preemergence; for pest or weed control at 125 g/ha: 125 g ai/ha, preemergence, approx. 10 d
[16] = system: giant foxtail (Setaria faberii); experiment: Test A preemergence; details: Setaria faberi, pre-emergence, 240 h, 0 to 100 scale where 0 is no effect and 100 is complete control, read-out: Foxtail, Giant plant response rating; for pest or weed control at 31 g/ha: 31 g ai/ha, Preemergence; for pest or weed control at 125 g/ha: 125 g ai/ha, preemergence, approx. 10 d
Outline: as §2

[17] = system: barnyardgrass (Echinochloa crus-galli); experiment: Test A preemergence; details: Echinochloa crus-galli, pre-emergence, 240 h, 0 to 100 scale where 0 is no effect and 100 is complete control, read-out: Barnyardgrass plant response rating; for pest or weed control at 31 g/ha: 31 g ai/ha, Preemergence; for pest or weed control at 125 g/ha: 125 g ai/ha, preemergence, approx. 10 d
Outline: as §2

[18] = system: ryegrass, Italian (Italian ryegrass, Lolium multiflorum); experiment: Test A preemergence; details: Lolium multiflorum, pre-emergence, 240 h, 0 to 100 scale where 0 is no effect and 100 is complete control, read-out: Ryegrass, Italian plant response rating; for pest or weed control at 31 g/ha: 31 g ai/ha, Preemergence; for pest or weed control at 125 g/ha: 125 g ai/ha, preemergence, approx. 10 d
Outline: as §2

SMILES	pest or weed control at 250 g/ha [1]	pest or weed control at 250 g/ha [2]	pest or weed control at 250 g/ha (rice (Oryra sativa))	pest or weed control at 250 g/ha [3]	plant injury at 125 g/ha (corn (Zea mays))	Corn plant response rating (crop injury, 0 = no effect, 100 = complete kill) at 31 g/ha (corn (Zea mays))	pest or weed control at 125 g/ha (Kochia (Kochia scoparia) [4])	pest or weed control at 31 g/ha (Kochia (Kochia scoparia) [4])	pest or weed control at 125 g/ha [5]	pest or weed control at 31 g/ha [5]	pest or weed control at 125 g/ha [6]	pest or weed control at 31 g/ha [6]	plant injury at 125 g/ha [7]	plant injury at 31 g/ha [7]	pest or weed control at 125 g/ha [8]	pest or weed control at 31 g/ha [8]	pest or weed control at 125 g/ha [9]	pest or weed control at 31 g/ha [9]	pest or weed control at 125 g/ha [10]	pest or weed control at 31 g/ha [10]	also measured
CN1C[C@H](c2ccc(F)c(Oc3ccccc3)c2)[C@@H](C(=O)Nc2ccccc2F)C1=O [Compound 1141]	0%	90%	0%	50%	20%	0%	30%	0%	30%	0%	50%	30%	20%	0%	30%	0%	90%	60%	90%	60%	pest or weed control at 125 g/ha [11]: 90%; pest or weed control at 31 g/ha [11]: 60%; pest or weed control at 125 g/ha [12]: 50%; pest or weed control at 31 g/ha [12]: 20%; pest or weed control at 31 g/ha (Kochia (Kochia scoparia) [13]): 0%; pest or weed control at 125 g/ha (Kochia (Kochia scoparia) [13]): 0%; pest or weed control at 31 g/ha [14]: 0%; pest or weed control at 125 g/ha [14]: 0%; pest or weed control at 31 g/ha [15]: 30%; pest or weed control at 125 g/ha [15]: 60%; pest or weed control at 31 g/ha [16]: 80%; pest or weed control at 125 g/ha [16]: 90%; pest or weed control at 31 g/ha [17]: 30%; pest or weed control at 125 g/ha [17]: 80%; pest or weed control at 31 g/ha [18]: 0%; pest or weed control at 125 g/ha [18]: 40%
CN1CC(c2cccc(C(F)(F)F)c2)C(C(=O)Nc2ccccc2C(C)(C)O)C1=O (stereo not drawn) [Compound 1146]	50%	0%	0%	45%	30%	0%	0%	0%	0%	0%	0%	0%	0%	0%	0%	0%	20%	0%	0%	0%	pest or weed control at 125 g/ha [11]: 40%; pest or weed control at 31 g/ha [11]: 0%; pest or weed control at 125 g/ha [12]: 0%; pest or weed control at 31 g/ha [12]: 0%; pest or weed control at 31 g/ha (Kochia (Kochia scoparia) [13]): 0%; pest or weed control at 125 g/ha (Kochia (Kochia scoparia) [13]): 0%; pest or weed control at 31 g/ha [14]: 0%; pest or weed control at 125 g/ha [14]: 0%; pest or weed control at 31 g/ha [15]: 0%; pest or weed control at 125 g/ha [15]: 0%; pest or weed control at 31 g/ha [16]: 20%; pest or weed control at 125 g/ha [16]: 80%; pest or weed control at 31 g/ha [17]: 50%; pest or weed control at 125 g/ha [17]: 70%; pest or weed control at 31 g/ha [18]: 0%; pest or weed control at 125 g/ha [18]: 30%
